Results reported in patent US20210045385A1, “PYRIDAZINONE-SUBSTITUTED KETOXIMES AS HERBICIDES” (FMC Corporation, priority 2018, published 2021).

Legend:
Type in all cases: in vivo
[1] = system: Italian ryegrass (Lolium mutiflorum); experiment: Test C preemergence, visual plant response rating; conditions: Test C, 0 is no effect, 100 is complete control
Procedure, shortened: (§1)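 Compounds in a non-phytotoxic solvent with surfactant were applied as a directed soil spray preemergence or to 2–10 cm, one- to two-leaf plants postemergence, in loam–sand soil. After about 10 d in a greenhouse, injury was visually rated against untreated controls on a 0–100 scale (100 = complete control).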

[2] = system: barnyardgrass (Echinochloa crus-galli); experiment: Test C preemergence, visual plant response rating; conditions: Test C, 0 is no effect, 100 is complete control
Procedure, shortened: as §1

[3] = system: foxtail, giant (giant foxtail, Setaria faberi); experiment: Test C preemergence, visual plant response rating; conditions: Test C, 0 is no effect, 100 is complete control
Procedure, shortened: as §1

kochia (Bassia scoparia) [4] = experiment: Test C preemergence, visual plant response rating; conditions: Test C, 0 is no effect, 100 is complete control
Procedure, shortened: as §1

[5] = system: pigweed (Amaranthus retroflexus); experiment: Test C preemergence, visual plant response rating; conditions: Test C, 0 is no effect, 100 is complete control
Procedure, shortened: as §1

[6] = system: ragweed (common ragweed, Ambrosia artemisiifolia); experiment: Test C preemergence, visual plant response rating; conditions: Test C, 0 is no effect, 100 is complete control
Procedure, shortened: as §1

[7] = system: Italian ryegrass (Lolium mutiflorum); experiment: Test C postemergence, visual plant response rating
Procedure, shortened: as §1

[8] = system: barnyardgrass (Echinochloa crus-galli); experiment: Test C postemergence, visual plant response rating
Procedure, shortened: as §1

[9] = system: blackgrass (Alopecurus myosuroides); experiment: Test C postemergence, visual plant response rating
Procedure, shortened: as §1

corn (Zea mays) = experiment: Test C postemergence, visual plant response rating
Procedure, shortened: as §1

[10] = system: foxtail, giant (giant foxtail, Setaria faberi); experiment: Test C postemergence, visual plant response rating
Procedure, shortened: as §1

[11] = system: galium (catchweed bedstraw, Galium aparine); experiment: Test C postemergence, visual plant response rating
Procedure, shortened: as §1

kochia (Bassia scoparia) [12] = experiment: Test C postemergence, visual plant response rating
Procedure, shortened: as §1

[13] = system: pigweed (Amaranthus retroflexus); experiment: Test C postemergence, visual plant response rating
Procedure, shortened: as §1

[14] = system: ragweed (common ragweed, Ambrosia artemisiifolia); experiment: Test C postemergence, visual plant response rating
Procedure, shortened: as §1

[15] = system: wheat (Triticum aestivum); experiment: Test C postemergence, visual plant response rating
Procedure, shortened: as §1

[16] = system: barnyardgrass (Echinochloa crus-galli); experiment: Test D flooded paddy test, visual plant response rating; conditions: 250 g ai/ha, scale 0 to 100 (0 no effect, 100 complete control), 13 to 15 d
Procedure, shortened: (§2)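 2-leaf plants, flooded 3 cm, cpd into paddy water; greenhouse 13–15 d; visual rating vs controls, 0 = no effect, 100 = complete control; dash = no result.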

[17] = system: duck salad (Heteranthera limosa); experiment: as above; conditions: 250 g ai/ha, scale 0 to 100 (0 no effect, 100 complete control), 13 to 15 d
Procedure, shortened: as §2

rice (Oryza sativa) = experiment: as above; conditions: 250 g ai/ha, scale 0 to 100 (0 no effect, 100 complete control), 13 to 15 d
Procedure, shortened: as §2

[18] = system: sedge umbrella (small-flower umbrella sedge, Cyperus difformis); experiment: as above; conditions: 250 g ai/ha, scale 0 to 100 (0 no effect, 100 complete control), 13 to 15 d
Procedure, shortened: as §2

[19] = Test C, postemergence, 125 g ai/ha

Compound | Ryegrass, Italian plant response rating (0 to 100 scale) ([1]; 31 g ai/ha) | Ryegrass, Italian plant response rating (0 to 100 scale) ([1]; 125 g ai/ha) | Barnyardgrass plant response rating (0 to 100 scale) ([2]; 31 g ai/ha) | Barnyardgrass plant response rating (0 to 100 scale) ([2]; 125 g ai/ha) | Foxtail, Giant plant response rating (0 to 100 scale) ([3]; 31 g ai/ha) | Foxtail, Giant plant response rating (0 to 100 scale) ([3]; 125 g ai/ha) | Kochia plant response rating (0 to 100 scale) (kochia (Bassia scoparia) [4]; 31 g ai/ha) | Kochia plant response rating (0 to 100 scale) (kochia (Bassia scoparia) [4]; 125 g ai/ha) | Pigweed plant response rating (0 to 100 scale) ([5]; 31 g ai/ha) | Pigweed plant response rating (0 to 100 scale) ([5]; 125 g ai/ha) | Ragweed plant response rating (0 to 100 scale) ([6]; 31 g ai/ha) | Ragweed plant response rating (0 to 100 scale) ([6]; 125 g ai/ha) | Ryegrass, Italian plant response rating (0 to 100 scale) ([7]; Postemergence, 31 g ai/ha) | Ryegrass, Italian plant response rating (0 to 100 scale) [7, 19] | Barnyardgrass plant response rating (0 to 100 scale) ([8]; Postemergence, 31 g ai/ha) | Barnyardgrass plant response rating (0 to 100 scale) [8, 19] | Blackgrass plant response rating (0 to 100 scale) ([9]; Postemergence, 31 g ai/ha) | Blackgrass plant response rating (0 to 100 scale) [9, 19] | Corn plant response rating (0 to 100 scale) (corn (Zea mays); Postemergence, 31 g ai/ha) | Corn plant response rating (0 to 100 scale) (corn (Zea mays); [19]) | other results
Cc1nn(C)c(=O)c(/C(=N\OC(C)C)c2cccc3cc(Cl)ccc23)c1O [Compound 241] | 0 | 0 | 10 | 60 | 80 | 90 | 0 | 0 | 90 | 100 | 40 | 10 | 0 | 0 | 30 | 60 | 20 | 40 | 10 | 0 | Foxtail, Giant plant response rating (0 to 100 scale) ([10]; Postemergence, 31 g ai/ha): 70; Foxtail, Giant plant response rating (0 to 100 scale) [10, 19]: 80; Galium plant response rating (0 to 100 scale) ([11]; Postemergence, 31 g ai/ha): 90; Galium plant response rating (0 to 100 scale) [11, 19]: 100; Kochia plant response rating (0 to 100 scale) (kochia (Bassia scoparia) [12]; Postemergence, 31 g ai/ha): 0; Kochia plant response rating (0 to 100 scale) (kochia (Bassia scoparia) [12]; [19]): 20; Pigweed plant response rating (0 to 100 scale) ([13]; Postemergence, 31 g ai/ha): 80; Pigweed plant response rating (0 to 100 scale) [13, 19]: 90; Ragweed plant response rating (0 to 100 scale) ([14]; Postemergence, 31 g ai/ha): 80; Ragweed plant response rating (0 to 100 scale) [14, 19]: 100; Wheat plant response rating (0 to 100 scale) ([15]; Postemergence, 31 g ai/ha): 0; Wheat plant response rating (0 to 100 scale) [15, 19]: 0; Plant response rating, Barnyardgrass (Flood) [16]: 90; Plant response rating, Ducksalad (Flood) [17]: 85; Plant response rating, Rice (Flood) (rice (Oryza sativa)): 85; Plant response rating, Sedge, Umbrella (Flood) [18]: 95
C#CCO/N=C(/c1c(O)c(C)nn(C)c1=O)c1cccc2cc(Cl)ccc12 [Compound 242] | 10 | 90 | 60 | 90 | 80 | 100 | 30 | 50 | 100 | 100 | 80 | 90 | 40 | 90 | 80 | 90 | 80 | 90 | 0 | 20 | Foxtail, Giant plant response rating (0 to 100 scale) ([10]; Postemergence, 31 g ai/ha): 70; Foxtail, Giant plant response rating (0 to 100 scale) [10, 19]: 80; Galium plant response rating (0 to 100 scale) ([11]; Postemergence, 31 g ai/ha): 80; Galium plant response rating (0 to 100 scale) [11, 19]: 100; Kochia plant response rating (0 to 100 scale) (kochia (Bassia scoparia) [12]; Postemergence, 31 g ai/ha): 40; Kochia plant response rating (0 to 100 scale) (kochia (Bassia scoparia) [12]; [19]): 50; Pigweed plant response rating (0 to 100 scale) ([13]; Postemergence, 31 g ai/ha): 90; Pigweed plant response rating (0 to 100 scale) [13, 19]: 100; Ragweed plant response rating (0 to 100 scale) ([14]; Postemergence, 31 g ai/ha): 50; Ragweed plant response rating (0 to 100 scale) [14, 19]: 90; Wheat plant response rating (0 to 100 scale) ([15]; Postemergence, 31 g ai/ha): 0; Wheat plant response rating (0 to 100 scale) [15, 19]: 60; Plant response rating, Barnyardgrass (Flood) [16]: 95; Plant response rating, Ducksalad (Flood) [17]: 98; Plant response rating, Rice (Flood) (rice (Oryza sativa)): 85; Plant response rating, Sedge, Umbrella (Flood) [18]: 100
